# Assays:
# Type in all cases: cell-based
# SK-OV-3 = assay: cells; settings: for growth percentage: SK-OV-3 (Ovarian Cancer), 10 μM, 48 hours
# OVCAR-8 = assay: cells; settings: for growth percentage: OVCAR-8 (Ovarian Cancer), 10 μM, 48 hours
# MDA-MB-231/ATCC = assay: cells; settings: for growth percentage: MDA-MB-231/ATCC (Breast Cancer), 10 μM, 48 hours
# MOLT-4 = assay: cells; settings: for growth percentage: MOLT-4 (Leukemia), 10 μM, 48 hours
# T-47D = assay: cells; settings: for growth percentage: T-47D (Breast Cancer), 10 μM, 48 hours
# HCT-15 = assay: cells; settings: for growth percentage: HCT-15 (Colon Cancer), 10 μM, 48 hours
# MCF7 = assay: cells; settings: for growth percentage: MCF7 (Breast Cancer), 10 μM, 48 hours
# NCI-H460 = assay: cells; settings: for growth percentage: NCI-H460 (Non-Small Cell Lung Cancer), 10 μM, 48 hours
# RXF 393 = assay: cells; settings: RXF 393 (Renal Cancer), 10 μM, 48 hours
# OVCAR-4 = assay: cells; settings: for growth percentage: OVCAR-4 (Ovarian Cancer), 10 μM, 48 hours
# OVCAR-5 = assay: cells; settings: for growth percentage: OVCAR-5 (Ovarian Cancer), 10 μM, 48 hours
# human PC-3 cells = assay: Sulforhodamine B (SRB) assay, cytotoxicity against PC-3 cells
# How it was run: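 PC-3 cells in 5% FBS were fixed with 10% TCA after 24 h as T0, then treated with compound for 48 h, fixed, stained with 0.4% SRB in 1% acetic acid and solubilized in 10 mmol/L Trizma base. Absorbance was read at 515 nm. GI% = 100−[(Tx−T0)/(C−T0)]×100, and IC50 is the concentration halving total protein.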
# SNB-75 = assay: cells; settings: for growth percentage: SNB-75 (CNS Cancer), 10 μM, 48 hours
# HT29 = assay: cells; settings: for growth percentage: HT29 (Colon Cancer), 10 μM, 48 hours
# MDA-MB-468 = assay: cells; settings: for growth percentage: MDA-MB-468 (Breast Cancer), 10 μM, 48 hours
# SN12C = assay: cells; settings: for growth percentage: SN12C (Renal Cancer), 10 μM, 48 hours
# HCT-116 = assay: cells; settings: for growth percentage: HCT-116 (Colon Cancer), 10 μM, 48 hours
# HOP-62 = assay: cells; settings: for growth percentage: HOP-62 (Non-Small Cell Lung Cancer), 10 μM, 48 hours
# SK-MEL-2 = assay: cells
# SK-MEL-28 = assay: cells; settings: for growth percentage: SK-MEL-28 (Melanoma), 10 μM, 48 hours
# MALME-3M = assay: cells; settings: for growth percentage: MALME-3M (Melanoma), 10 μM, 48 hours
# OVCAR-3 = assay: cells; settings: OVCAR-3 (Ovarian Cancer), 10 μM, 48 hours
# HOP-92 = assay: cells
# NCI/ADR-RES = assay: cells; settings: for growth percentage: NCI/ADR-RES (Ovarian Cancer), 10 μM, 48 hours
# UO-31 = assay: cells; settings: for growth percentage: UO-31 (Renal Cancer), 10 μM, 48 hours
# KM12 = assay: cells; settings: for growth percentage: KM12 (Colon Cancer), 10 μM, 48 hours
# HS 578T = assay: cells; settings: for growth percentage: HS 578T (Breast Cancer), 10 μM, 48 hours
# [1] = Homo sapiens, Breast Cancer MDA-MB-231/ATCC
# [2] = Homo sapiens, Colon Cancer HCT-116
# [3] = Homo sapiens, Non-Small Cell Lung Cancer HOP-62
# [4] = Homo sapiens, Melanoma MALME-3M
# [5] = Homo sapiens, Non-Small Cell Lung Cancer HOP-92
compound,measurement,setting,value
"CN(C)c1nc2ccccc2c2c1-c1ccc(Cl)cc1C2=O [SJ-2, 9-Chloro-6-(dimethylamino)-11H-indeno[1,2-c]quinolin-11-one]",growth percentage,SK-OV-3,99.12%
same,growth percentage,OVCAR-8,84.55%
same,growth percentage,MDA-MB-231/ATCC,76.68%
same,growth percentage,MOLT-4,88.92%
same,growth percentage,T-47D,44.88%
same,growth percentage,HCT-15,80.49%
same,growth percentage,MCF7,23.99%
same,growth percentage,NCI-H460,94.17%
same,growth percentage,RXF 393,101.32%
same,growth percentage,OVCAR-4,84.28%
same,growth percentage,OVCAR-5,89.14%
same,IC50,"human PC-3 cells; Homo sapiens, PC-3, 48 h",4.34 µM
same,growth percentage,SNB-75,69.12%
same,growth percentage,HT29,94.89%
same,growth percentage,MDA-MB-468,0.60%
same,growth percentage,SN12C,95.38%
same,growth percentage,HCT-116,98.57%
same,growth percentage,HOP-62,78.02%
same,growth percentage,"SK-MEL-2; SK-MEL-2 (Melanoma), 10 μM, 48 hours",95.09%
same,growth percentage,SK-MEL-28,113.43%
same,growth percentage,MALME-3M,111.50%
same,growth percentage,OVCAR-3,103.48%
same,growth percentage,"HOP-92; HOP-92 (Non-Small Cell Lung Cancer), 10 μM, 48 hours",44.26%
same,growth percentage,NCI/ADR-RES,92.57%
same,growth percentage,UO-31,48.63%
same,growth percentage,KM12,94.44%
same,growth percentage,HS 578T,72.84%
"CCN(CC)CCNc1nc2ccccc2c2c1-c1ccc(Cl)cc1C2=O [SJ-3, 6-(2-(Diethylamino)ethylamino)-9-chloro-11H-indeno[1,2-c]quinolin-11-one]",GI50,"SK-OV-3; Homo sapiens, Ovarian Cancer SK-OV-3",35.9 µM
same,CC50,"SK-OV-3; Homo sapiens, Ovarian Cancer SK-OV-3, read-out: LC50 (the source's name)",17.2 µM
same,TGI,SK-OV-3; Ovarian Cancer SK-OV-3,5.57 µM
same,growth percentage,SK-OV-3,84.20%
same,GI50,"OVCAR-8; Homo sapiens, Ovarian Cancer OVCAR-8",13.8 µM
same,CC50,"OVCAR-8; Homo sapiens, Ovarian Cancer OVCAR-8, read-out: LC50 (the source's name)",7.76 µM
same,growth percentage,OVCAR-8,61.36%
same,TGI,OVCAR-8; Ovarian Cancer OVCAR-8,3.63 µM
same,TGI,MDA-MB-231/ATCC; Breast Cancer MDA-MB-231/ATCC,2.71 µM
same,GI50,MDA-MB-231/ATCC; [1],2.23 µM
same,LC50 (concentration giving 50% net cell kill),MDA-MB-231/ATCC; [1],5.7 µM
same,growth percentage,MDA-MB-231/ATCC,25.16%
same,GI50,"MOLT-4; Homo sapiens, Leukemia MOLT-4",6.24 µM
same,LC50 (concentration killing 50% of cells),"MOLT-4; Homo sapiens, Leukemia MOLT-4",7.91 µM
same,TGI,MOLT-4; Leukemia MOLT-4,3.43 µM
same,growth percentage,MOLT-4,34.63%
same,TGI,T-47D; Breast Cancer T-47D,3.56 µM
same,GI50,"T-47D; Homo sapiens, T47D, Breast Cancer T-47D",17.8 µM
same,CC50,"T-47D; Homo sapiens, T47D, Breast Cancer T-47D, read-out: LC50 (the source's name)",7.19 µM
same,growth percentage,T-47D,43.28%
same,TGI,HCT-15; Colon Cancer HCT-15,3.51 µM
same,growth percentage,HCT-15,50.38%
same,GI50,"HCT-15; Homo sapiens, Colon Cancer HCT-15",4.37 µM
same,CC50,"HCT-15; Homo sapiens, Colon Cancer HCT-15, read-out: LC50 (the source's name)",7.5 µM
same,TGI,MCF7; Breast Cancer MCF7,2.60 µM
same,GI50,"MCF7; Homo sapiens, Breast Cancer MCF7",0.44 µM
same,CC50,"MCF7; Homo sapiens, Breast Cancer MCF7, read-out: LC50 (the source's name)",5.54 µM
same,growth percentage,MCF7,12.70%
same,GI50,"NCI-H460; Homo sapiens, Non-Small Cell Lung Cancer NCI-460",5.15 µM
same,CC50,"NCI-H460; Homo sapiens, Non-Small Cell Lung Cancer NCI-460, read-out: LC50 (the source's name)",6.74 µM
same,growth percentage,NCI-H460,25.15%
same,TGI,NCI-H460; Non-Small Cell Lung Cancer NCI-460,3.20 µM
same,growth percentage,RXF 393,51.90%
same,GI50,"OVCAR-4; Homo sapiens, Ovarian Cancer OVCAR-4",2.99 µM
same,CC50,"OVCAR-4; Homo sapiens, Ovarian Cancer OVCAR-4, read-out: LC50 (the source's name)",5.68 µM
same,growth percentage,OVCAR-4,52.50%
same,TGI,OVCAR-4; Ovarian Cancer OVCAR-4,2.79 µM
same,GI50,"OVCAR-5; Homo sapiens, Ovarian Cancer OVCAR-5",21.5 µM
same,CC50,"OVCAR-5; Homo sapiens, Ovarian Cancer OVCAR-5, read-out: LC50 (the source's name)",6.52 µM
same,growth percentage,OVCAR-5,89.34%
same,TGI,OVCAR-5; Ovarian Cancer OVCAR-5,3.32 µM
same,Toxicity (%),"human PC-3 cells; SRB assay, PC-3 cells",55.6%
same,GI % (10 μM),"human PC-3 cells; SRB assay, PC-3 cells, 10 μM",100%
same,TGI,SNB-75; CNS Cancer SNB-75,2.35 µM
same,GI50,"SNB-75; Homo sapiens, CNS Cancer SNB-75",3.25 µM
same,CC50,"SNB-75; Homo sapiens, CNS Cancer SNB-75, read-out: LC50 (the source's name)",4.86 µM
same,growth percentage,SNB-75,71.52%
same,TGI,HT29; Colon Cancer HT29,3.16 µM
same,growth percentage,HT29,9.75%
same,GI50,"HT29; Homo sapiens, HT-29, Colon Cancer HT29",4.23 µM
same,CC50,"HT29; Homo sapiens, HT-29, Colon Cancer HT29, read-out: LC50 (the source's name)",6.28 µM
same,TGI,MDA-MB-468; Breast Cancer MDA-MB-468,3.07 µM
same,GI50,"MDA-MB-468; Homo sapiens, Breast Cancer MDA-MB-468",1.71 µM
same,growth percentage,MDA-MB-468,33.81%
same,GI50,"SN12C; Homo sapiens, Renal Cancer SN12C",4.12 µM
same,CC50,"SN12C; Homo sapiens, Renal Cancer SN12C, read-out: LC50 (the source's name)",6.16 µM
same,TGI,SN12C; Renal Cancer SN12C,2.87 µM
same,growth percentage,SN12C,61.60%
same,TGI,HCT-116; Colon Cancer HCT-116,3.19 µM
same,growth percentage,HCT-116,36.96%
same,GI50,HCT-116; [2],6.19 µM
same,LC50 (50% lethal concentration),HCT-116; [2],6.06 µM
same,growth percentage,HOP-62,24.86%
same,GI50,HOP-62; [3],4.51 µM
same,LC50 (50% lethal concentration),HOP-62; [3],5.74 µM
same,TGI,HOP-62; Non-Small Cell Lung Cancer HOP-62,2.83 µM
same,GI50,"SK-MEL-2; Homo sapiens, Melanoma SK-MEL-2",37.7 µM
same,CC50,"SK-MEL-2; Homo sapiens, Melanoma SK-MEL-2, read-out: LC50 (the source's name)",10.4 µM
same,TGI,SK-MEL-2; Melanoma SK-MEL-2,4.73 µM
same,GI50,"SK-MEL-28; Homo sapiens, Melanoma SK-MEL-28",6 µM
same,CC50,"SK-MEL-28; Homo sapiens, Melanoma SK-MEL-28, read-out: LC50 (the source's name)",5.83 µM
same,TGI,SK-MEL-28; Melanoma SK-MEL-28,3.21 µM
same,growth percentage,SK-MEL-28,87.40%
same,GI50,MALME-3M; [4],17.3 µM
same,LC50 (concentration killing 50% of cells),MALME-3M; [4],7.46 µM
same,growth percentage,MALME-3M,52.55%
same,TGI,MALME-3M; Melanoma MALME-3M,3.83 µM
same,growth percentage,OVCAR-3,73.13%
same,GI50,HOP-92; [5],3.08 µM
same,LC50,HOP-92; [5],25.1 µM
same,TGI,HOP-92; Non-Small Cell Lung Cancer HOP-92,5.80 µM
same,GI50,"NCI/ADR-RES; Homo sapiens, Ovarian Cancer NCI/ADR-RES",19.3 µM
same,CC50,"NCI/ADR-RES; Homo sapiens, Ovarian Cancer NCI/ADR-RES, read-out: LC50 (the source's name)",7.41 µM
same,growth percentage,NCI/ADR-RES,69.55%
same,TGI,NCI/ADR-RES; Ovarian Cancer NCI/ADR-RES,3.67 µM
same,GI50,"UO-31; Homo sapiens, Renal Cancer UO-31",3.61 µM
same,CC50,"UO-31; Homo sapiens, Renal Cancer UO-31, read-out: LC50 (the source's name)",6.48 µM
same,TGI,UO-31; Renal Cancer UO-31,2.88 µM
same,growth percentage,UO-31,25.86%
same,TGI,KM12; Colon Cancer KM12,3.11 µM
same,GI50,"KM12; Homo sapiens, Colon Cancer KM12",6.48 µM
same,CC50,"KM12; Homo sapiens, Colon Cancer KM12, read-out: LC50 (the source's name)",5.96 µM
same,growth percentage,KM12,53.42%
same,TGI,HS 578T; Breast Cancer HS 578T,10.00 µM
same,growth percentage,HS 578T,84.70%
same,GI50,"HS 578T; Homo sapiens, Breast Cancer HS 578T",19.3 µM
same,CC50,"HS 578T; Homo sapiens, Breast Cancer HS 578T, read-out: LC50 (the source's name)",46.1 µM

# Reference: patent US20150197492A1, “NOVEL INDENO[1,2-c]QUINOLIN-11-ONE DERIVATIVES, PREPARATION METHOD AND APPLICATION THEREOF” (National Defense Medical Center, priority 2014, published 2015)
